Measurements as given in ChEMBL document CHEMBL4414672, “Synthesis of certain benzothieno[3,2-d]pyrimidine derivatives as a selective SIRT2 inhibitors” (Eur J Med Chem, 2020).

Columns and labels:
Assay type in all cases: functional
CCRF-CEM = assay: Growth inhibition of human CCRF-CEM cells at 10^-5 M incubated for 48 hrs by sulforhodamine B assay; conditions: read-out: GI
HL-60(TB) = assay: Growth inhibition of human HL-60(TB) cells at 10^-5 M incubated for 48 hrs by sulforhodamine B assay; conditions: HL-60, 48 h, read-out: GI
MOLT-4 = assay: Growth inhibition of human MOLT4 cells at 10^-5 M incubated for 48 hrs by sulforhodamine B assay; conditions: MOLT-4, 48 h, read-out: GI
A549 = assay: Growth inhibition of human A549/ATCC cells at 10^-5 M incubated for 48 hrs by sulforhodamine B assay; conditions: A549, 48 h, read-out: GI
EKVX = assay: Growth inhibition of human EKVX cells at 10^-5 M incubated for 48 hrs by sulforhodamine B assay; conditions: read-out: GI
HOP-62 = assay: Growth inhibition of human HOP62 cells at 10^-5 M incubated for 48 hrs by sulforhodamine B assay; conditions: HOP-62, 48 h, read-out: GI
NCI-H226 = assay: Growth inhibition of human NCI-H226 cells at 10^-5 M incubated for 48 hrs by sulforhodamine B assay; conditions: NCI-H226, 48 h, read-out: GI
NCI-H460 = assay: Growth inhibition of human NCI-H460 cells at 10^-5 M incubated for 48 hrs by sulforhodamine B assay; conditions: NCI-H460, 48 h, read-out: GI
NCI-H522 = assay: Growth inhibition of human NCI-H522 cells at 10^-5 M incubated for 48 hrs by sulforhodamine B assay; conditions: NCI-H522, 48 h, read-out: GI
COLO 205 = assay: Growth inhibition of human COLO205 cells at 10^-5 M incubated for 48 hrs by sulforhodamine B assay; conditions: COLO 205, 48 h, read-out: GI
HCC 2998 = assay: Growth inhibition of human HCC2998 cells at 10^-5 M incubated for 48 hrs by sulforhodamine B assay; conditions: HCC 2998, 48 h, read-out: GI
HCT-116 = assay: Growth inhibition of human HCT116 cells at 10^-5 M incubated for 48 hrs by sulforhodamine B assay; conditions: HCT-116, 48 h, read-out: GI
HCT-15 = assay: Growth inhibition of human HCT15 cells at 10^-5 M incubated for 48 hrs by sulforhodamine B assay; conditions: HCT-15, 48 h, read-out: GI
HT-29 = assay: Growth inhibition of human HT-29 cells at 10^-5 M incubated for 48 hrs by sulforhodamine B assay; conditions: HT-29, 48 h, read-out: GI
KM12 = assay: Growth inhibition of human KM12 cells at 10^-5 M incubated for 48 hrs by sulforhodamine B assay; conditions: KM12, 48 h, read-out: GI
SW-620 = assay: Growth inhibition of human SW620 cells at 10^-5 M incubated for 48 hrs by sulforhodamine B assay; conditions: SW-620, 48 h, read-out: GI
SF-268 = assay: Growth inhibition of human SF268 cells at 10^-5 M incubated for 48 hrs by sulforhodamine B assay; conditions: SF-268, 48 h, read-out: GI
SF-295 = assay: Growth inhibition of human SF295 cells at 10^-5 M incubated for 48 hrs by sulforhodamine B assay; conditions: SF-295, 48 h, read-out: GI
SNB-75 = assay: Growth inhibition of human SNB75 cells at 10^-5 M incubated for 48 hrs by sulforhodamine B assay; conditions: SNB-75, 48 h, read-out: GI
U-251 = assay: Growth inhibition of human U251 cells at 10^-5 M incubated for 48 hrs by sulforhodamine B assay; conditions: U-251, 48 h, read-out: GI
LOX IMVI = assay: Growth inhibition of human LOXIMVI cells at 10^-5 M incubated for 48 hrs by sulforhodamine B assay; conditions: read-out: GI
MDA-MB-435 = assay: Growth inhibition of human MDA-MB-435 cells at 10^-5 M incubated for 48 hrs by sulforhodamine B assay; conditions: MDA-MB-435, 48 h, read-out: GI
SK-MEL-28 = assay: Growth inhibition of human SK-MEL-28 cells at 10^-5 M incubated for 48 hrs by sulforhodamine B assay; conditions: SK-MEL-28, 48 h, read-out: GI
SK-MEL-5 = assay: Growth inhibition of human SK-MEL-5 cells at 10^-5 M incubated for 48 hrs by sulforhodamine B assay; conditions: SK-MEL-5, 48 h, read-out: GI
UACC-257 = assay: Growth inhibition of human UACC257 cells at 10^-5 M incubated for 48 hrs by sulforhodamine B assay; conditions: UACC-257, 48 h, read-out: GI
IGROV-1 = assay: Growth inhibition of human IGROV1 cells at 10^-5 M incubated for 48 hrs by sulforhodamine B assay; conditions: IGROV-1, 48 h, read-out: GI
OVCAR-4 = assay: Growth inhibition of human OVCAR4 cells at 10^-5 M incubated for 48 hrs by sulforhodamine B assay; conditions: OVCAR-4, 48 h, read-out: GI
OVCAR-5 = assay: Growth inhibition of human OVCAR5 cells at 10^-5 M incubated for 48 hrs by sulforhodamine B assay; conditions: OVCAR-5, 48 h, read-out: GI
NCI/ADR-RES = assay: Growth inhibition of human NCI/ADR-RES cells at 10^-5 M incubated for 48 hrs by sulforhodamine B assay; conditions: read-out: GI
786-0 = assay: Growth inhibition of human 786-0 cells at 10^-5 M incubated for 48 hrs by sulforhodamine B assay; conditions: 786-0, 48 h, read-out: GI
ACHN = assay: Growth inhibition of human ACHN cells at 10^-5 M incubated for 48 hrs by sulforhodamine B assay; conditions: read-out: GI
CAKI-1 = assay: Growth inhibition of human Caki1 cells at 10^-5 M incubated for 48 hrs by sulforhodamine B assay; conditions: CAKI-1, 48 h, read-out: GI
UO-31 = assay: Growth inhibition of human UO31 cells at 10^-5 M incubated for 48 hrs by sulforhodamine B assay; conditions: UO-31, 48 h, read-out: GI
DU-145 = assay: Growth inhibition of human DU145 cells at 10^-5 M incubated for 48 hrs by sulforhodamine B assay; conditions: DU-145, 48 h, read-out: GI
MCF7 = assay: Growth inhibition of human MCF7 cells at 10^-5 M incubated for 48 hrs by sulforhodamine B assay; conditions: MCF7, 48 h, read-out: GI
Hs-578T = assay: Growth inhibition of human Hs 578T cells at 10^-5 M incubated for 48 hrs by sulforhodamine B assay; conditions: read-out: GI
BT-549 = assay: Growth inhibition of human BT549 cells at 10^-5 M incubated for 48 hrs by sulforhodamine B assay; conditions: BT-549, 48 h, read-out: GI
MDA-MB-468 = assay: Growth inhibition of human MDA-MB-468 cells at 10^-5 M incubated for 48 hrs by sulforhodamine B assay; conditions: MDA-MB-468, 48 h, read-out: GI

Row | SMILES | inhibition of growth at 10 µM (CCRF-CEM) [%] | inhibition of growth at 10 µM (HL-60(TB)) [%] | inhibition of growth at 10 µM (MOLT-4) [%] | inhibition of growth at 10 µM (A549) [%] | inhibition of growth at 10 µM (EKVX) [%] | inhibition of growth at 10 µM (HOP-62) [%] | inhibition of growth at 10 µM (NCI-H226) [%] | inhibition of growth at 10 µM (NCI-H460) [%] | inhibition of growth at 10 µM (NCI-H522) [%] | inhibition of growth at 10 µM (COLO 205) [%] | inhibition of growth at 10 µM (HCC 2998) [%] | inhibition of growth at 10 µM (HCT-116) [%] | inhibition of growth at 10 µM (HCT-15) [%] | inhibition of growth at 10 µM (HT-29) [%] | inhibition of growth at 10 µM (KM12) [%] | inhibition of growth at 10 µM (SW-620) [%] | inhibition of growth at 10 µM (SF-268) [%] | inhibition of growth at 10 µM (SF-295) [%] | inhibition of growth at 10 µM (SNB-75) [%] | inhibition of growth at 10 µM (U-251) [%] | further results
1 | O=[N+]([O-])c1cccc(C2c3sc4ccc(Cl)cc4c3N=C3NN=NN32)c1 (centres undefined) | -11.4 | -9.93 | -1.88 | 9.64 | 8.75 | 0.43 | 11.5 | 6.19 | -7.9 | -7.9 | 1.22 | -7.64 | -16 | -2.76 | -1.99 | -1.74 | -8.1 | 3.68 | -9.67 | 3.96 | inhibition of growth at 10 µM (LOX IMVI): -0.19%; inhibition of growth at 10 µM (MDA-MB-435): 2.65%; inhibition of growth at 10 µM (SK-MEL-28): 3.38%; inhibition of growth at 10 µM (SK-MEL-5): -10.9%; inhibition of growth at 10 µM (UACC-257): 3.87%; inhibition of growth at 10 µM (IGROV-1): -11.1%; inhibition of growth at 10 µM (OVCAR-4): -6.3%; inhibition of growth at 10 µM (OVCAR-5): -6.97%; inhibition of growth at 10 µM (NCI/ADR-RES): 3.11%; inhibition of growth at 10 µM (786-0): 9.33%; inhibition of growth at 10 µM (ACHN): -27.8%; inhibition of growth at 10 µM (CAKI-1): -15.7%; inhibition of growth at 10 µM (UO-31): 14.5%; inhibition of growth at 10 µM (DU-145): 22%; inhibition of growth at 10 µM (MCF7): 15.4%; inhibition of growth at 10 µM (Hs-578T): -11.2%; inhibition of growth at 10 µM (BT-549): 9.57%; inhibition of growth at 10 µM (MDA-MB-468): -8.85%
2 | O=[N+]([O-])c1cccc(C2c3sc4ccc(Cl)cc4c3N=C3NN=CN32)c1 (centres undefined) | -13.4 | -6.74 | 0.47 | -0.61 | 15 | 10.8 | 21.7 | 2.77 | 1.55 | -6.88 | -6.88 | 3.22 | -1.1 | -15.1 | 3.7 | 5.16 | 4.21 | -3.63 | -4.8 | -0.13 | inhibition of growth at 10 µM (LOX IMVI): 6.72%; inhibition of growth at 10 µM (MDA-MB-435): -17.5%; inhibition of growth at 10 µM (SK-MEL-28): -17.9%; inhibition of growth at 10 µM (SK-MEL-5): 5.85%; inhibition of growth at 10 µM (UACC-257): -3.45%; inhibition of growth at 10 µM (IGROV-1): -11.9%; inhibition of growth at 10 µM (OVCAR-4): 0.93%; inhibition of growth at 10 µM (OVCAR-5): -1.09%; inhibition of growth at 10 µM (NCI/ADR-RES): 6.44%; inhibition of growth at 10 µM (786-0): 5.64%; inhibition of growth at 10 µM (ACHN): 22%; inhibition of growth at 10 µM (CAKI-1): -3.12%; inhibition of growth at 10 µM (UO-31): 23%; inhibition of growth at 10 µM (DU-145): 28.2%; inhibition of growth at 10 µM (MCF7): 16.9%; inhibition of growth at 10 µM (Hs-578T): -18.1%; inhibition of growth at 10 µM (BT-549): 16.9%; inhibition of growth at 10 µM (MDA-MB-468): -15.5%
3 | O=C1/C(=C\c2ccc3ccccc3c2)Sc2ccc(Cl)cc21 | -2.13 | -7.44 | 1.25 | -7.74 | 12.7 | 5.71 | 17.9 | 0.3 | 11.7 | -10.7 | -27.2 | 6.88 | -4.32 | -1.78 | -1.53 | 3.24 | 3.36 | -8.09 | -0.33 | -1.36 | inhibition of growth at 10 µM (LOX IMVI): 1.77%; inhibition of growth at 10 µM (MDA-MB-435): -2.15%; inhibition of growth at 10 µM (SK-MEL-28): -17.4%; inhibition of growth at 10 µM (SK-MEL-5): 5.71%; inhibition of growth at 10 µM (UACC-257): -3.36%; inhibition of growth at 10 µM (IGROV-1): 15.7%; inhibition of growth at 10 µM (OVCAR-4): 12.3%; inhibition of growth at 10 µM (OVCAR-5): -2.92%; inhibition of growth at 10 µM (NCI/ADR-RES): 2.51%; inhibition of growth at 10 µM (786-0): 0.49%; inhibition of growth at 10 µM (ACHN): 8.79%; inhibition of growth at 10 µM (CAKI-1): 27.9%; inhibition of growth at 10 µM (UO-31): -5.61%; inhibition of growth at 10 µM (DU-145): -10.2%; inhibition of growth at 10 µM (MCF7): -10.2%; inhibition of growth at 10 µM (Hs-578T): -2.83%; inhibition of growth at 10 µM (BT-549): -9.47%; inhibition of growth at 10 µM (MDA-MB-468): -6.42%
